Test results from patent US4461906A, “Pyrrolidine 2-one derivatives” (Hoffmann-La Roche Inc., priority 1979, dated 1984).

Assay: Acute toxicity, single oral administration to mice
Conditions: mouse, in vivo, p.o.
In the case of `COc1ccc(C(=O)N2CCC(O)C2=O)cc1` (racemic) [A], the LD50 was over 5000 mg/kg.
Work on `COc1ccc(C(=O)N2CC(O)CC2=O)cc1` (racemic) [C, (R,S)-1-(p-Methoxybenzoyl)-4-hydroxy-2-pyrrolidinone] yielded an LD50 of 2000 to 4000 mg/kg.
`COc1ccc(C(=O)N2CCCC2=O)cc1O` [B, 1-(3-Hydroxy-4-methoxybenzoyl)-2-pyrrolidinone] gave an LD50 of 1250 to 2500 mg/kg.
